Counter-ions that a name gives are not always drawn.

The values that follow come from EPA's ToxValDB 9.5.

In this data set the test system is Rattus norvegicus. The conditions noted are these: oral.
[1] abbreviates: short-term, duration: 28 days, gavage, F, Sprague-Dawley, Clinical Observation: Salivation80 + Necropsy: Stomach-Thickening, limiting ridge Forestomach-Thickening, mucosa, focal + Histopathology: ….
Where [2] appears, read: short-term, duration: 28 days, gavage, M, Sprague-Dawley, Clinical Observation: Salivation80 + Necropsy: Stomach-Thickening, limiting ridge Forestomach-Thickening, mucosa, focal + Histopathology: ….
Setting [3] is: subchronic, gavage, M, Sprague-Dawley, Clinical Observation: Soiled perigenital region + Body Weight Changes: Weight gain decrease + Food Consumption: decrease(week 1) + Blood ….
Setting [4] is: subchronic, gavage, M, Sprague-Dawley, Hematology: RBC decrease, Hgb decrease, Ret increase + Blood Chemistry: Cho increase, PL increase + Absolute Organ Weight: Kidney increase….
The mark [5] stands for this setting: subchronic, gavage, M, Sprague-Dawley, Clinical Observation: Salivation PtosisEmaciation Locomotor activity decrease + Body Weight Changes: Gain decrease + Blood Chemistry: TP ….
[6] abbreviates: short-term, duration: 28 days, gavage, F, Sprague-Dawley, Urinalysis: Volume increasep H decrease + Hematology: APTT increase, PT increase + Blood Chemistry: TP increase, Glu decrease, Cho increase….
The mark [7] stands for this setting: short-term, duration: 28 days, gavage, M, Sprague-Dawley, Urinalysis: Volume increasep H decrease + Hematology: APTT increase, PT increase + Blood Chemistry: TP increase, Glu decrease, Cho increase….
The mark [8] stands for this setting: subchronic, gavage, M, Sprague-Dawley, Absolute Organ Weight: Liver increase + Relative Organ Weight: Liver increase + Necropsy: Stomach-Thickening of limiting ledge + ….

`C=Cc1ccncc1` [4-Vinylpyridine]: under setting [1], the LOEL was found to be 80 mg/kg-day and the NOEL is 40 mg/kg-day. For the same compound, under setting [2], the LOEL turned out to be 40 mg/kg-day and the NOEL was 20 mg/kg-day. On to `Nc1ccc2cc(S(=O)(=O)O)ccc2c1` [6-Aminonaphthalene-2-sulfonic acid], for which, under “short-term, duration: 28 days, gavage, M/F, Urinalysis: pH decrease + Blood Chemistry: GOT increase”, the NOEL came to 300 mg/kg-day. With `O=C/C=C/c1ccccc1` [(2E)-3-Phenylprop-2-enal], the NOEL is, setting by setting: (chronic, duration: 14 weeks, diet, F, Fischer 344, Body Weight Changes: decrease + Food Consumption: decrease + Hematology: Ret decrease, Plt decrease + Blood Chemistry: Bile acid increase, …) < 300 mg/kg-day; (chronic, duration: 14 weeks, diet, M/F, Fischer 344, Body Weight Changes: decrease + Food Consumption: decrease + Hematology: Ret decrease, Plt decrease + Blood Chemistry: Bile acid increase, …) < 320 mg/kg-day. As for `C/C=C/C=C/C=O` [(2E,4E)-2,4-Hexadienal], the NOEL (chronic, duration: 14 weeks, gavage, M/F, Fischer 344, Clinical Observation: Hypersalivation + Body Weight Changes: decrease + Histopathology: Stomach/forestomach-Epithelium hyperplasia Stomach/…) came out at 15 mg/kg-day. By NOAEL is commonly meant the highest tested level that showed no adverse finding. As to `CC/C=C\CCOC(=O)c1ccccc1O` [(3Z)-Hex-3-en-1-yl salicylate], the no observed adverse effect level (NOAEL) (subchronic, duration: 42 days, gavage, M, Sprague-Dawley, Water Consumption: increase + Urinalysis: Volume increase, Osmo decrease + Hematology: RBC decrease, MCV increase, MCHC increase, RET …) was 120 mg/kg-day. Consider `CC(C)c1ccc2oc3nc(N)c(C(=O)O)cc3c(=O)c2c1` [Amlenanox], for which the NOEL (subchronic, duration: 35 days, gavage, M/F, Wistar, Blood Chemistry: ALP increase + Absolute Organ Weight: Cecum increase, Stomach increase + Relative Organ Weight: Carcass increase, Cecum …) was 200 mg/kg-day. Take `COc1ccc(OC)c(N)c1` [Benzenamine, 2,5-dimethoxy-]: under “short-term, duration: 28 days, gavage, M/F, Clinical Observation: Salivation + Body Weight Changes: Weight gain decrease + Food Consumption: decrease + Hematology: HGB decrease, RET …”, the NOEL turned out to be 1 mg/kg-day. For the compound `Cc1cccc(Cl)c1Cl` [Benzene, 1,2-dichloro-3-methyl-], under setting [3], the NOAEL turned out to be 200 mg/kg-day and the NOEL was < 50 mg/kg-day. What is called LOAEL is the lowest tested level that showed an adverse finding. As for `Sc1ccccc1` [Benzenethiol], under setting [4], the LOAEL is 0.4 mg/kg-day, the LOEL turned out to be 0.4 mg/kg-day, the NOAEL is < 0.4 mg/kg-day and the NOEL is < 0.4 mg/kg-day. Regarding `N#Cc1cccc([N+](=O)[O-])c1` [Benzonitrile, 3-nitro-], the NOEL (short-term, duration: 28 days, gavage, M/F, Deaths + Clinical Observation: Paralytic gait Piloerection Reddish tears + Body Weight Changes: Body weight gain decrease + Hematology: WBC…) was < 0.5 mg/kg-day. Turning to `ClC(Cl)(Cl)c1ccccc1` [Benzotrichloride], the NOAEL (short-term, duration: 28 days, diet, M/F, CD, Blood Chemistry: SDH(sorbitol dehydrogenase) increase, LDH increase + Histopathology: Liver: Anisokaryosis associated with pyknosis, …) was < 0.5 ppm.

As for `CCCCN(CCCC)C(=S)[S-].CCCCN(CCCC)C(=S)[S-].[Cu+2]` [Bis(N,N-dibutyldithiocarbamato)copper], for the setting “subchronic, gavage, M, Sprague-Dawley, Urinalysis: Protein increase, Cl increase + Blood Chemistry: Cho increase + Relative Organ Weight: Adrenal decrease”, the NOEL was < 40 mg/kg-day.

Take `S=C(SSSSC(=S)N1CCCCC1)N1CCCCC1` [Bis(piperidinothiocarbonyl) tetrasulphide]: the NOEL (short-term, duration: 28 days, gavage, F, Sprague-Dawley, Histopathology: Kidney-Hyaline droplet, proximal tubular epithelium Kidney-Eosinophilic body, proximal tubular epithelium) stood at 1000 mg/kg-day; the NOEL (short-term, duration: 28 days, gavage, M, Sprague-Dawley, Histopathology: Kidney-Hyaline droplet, proximal tubular epithelium Kidney-Eosinophilic body, proximal tubular epithelium) worked out at 100 mg/kg-day; the NOEL (subchronic, gavage, M, Sprague-Dawley, Clinical Observation: Light brown stool + Body Weight Changes: decrease, R) came out at 1000 mg/kg-day. Compound `O=C1C=CC(=O)N1c1ccc(Cc2ccc(N3C(=O)C=CC3=O)cc2)cc1` [Bismaleimide] yielded an NOEL (subchronic, gavage, Sprague-Dawley) of 1000 mg/kg-day. In the case of `CC(O)COc1ccc(C(C)(C)c2ccc(OCC(C)O)cc2)cc1` (centres undefined) [Bisphenol A bis(polypropylene glycol) ether], under setting [5], the LOAEL turned out to be 120 mg/kg-day, the LOEL is 120 mg/kg-day, the no observed adverse effect level (NOAEL) stood at 30 mg/kg-day and the NOEL was 30 mg/kg-day. Regarding `O=c1[nH]c(=O)n([C@@H]2O[C@H](CO)[C@@H](O)[C@@H]2O)cc1/C=C/Br` [Bravavir], the NOEL (chronic, duration: 182 days, gavage, M/F, Wistar, Deaths + Clinical Observation: Soiled eyelid Smudge, perioral, nose Flush, ear auricle Polyuria Soiled perineal region Decrease or loss of …) is 80 mg/kg-day.

On to `CCCC=NO` [Butyraldehyde oxime], for which, under “subchronic, gavage, M/F, Fischer 344, Deaths + Body Weight Changes: decrease + Urinalysis: Thiocyanate (I1/4mol/24 hr) increase, Thiocyanate/creatinine ratio increase, Creatinine…”, the NOEL is < 25 mg/kg-day. As to `c1ccc2c(c1)[nH]c1ccccc12` [Carbazole], the NOEL (subchronic, gavage, M, Sprague-Dawley, Body Weight Changes: decrease + Blood Chemistry: T-Cho increase, PL increase, Glu decrease + Absolute Organ Weight: Liver increase, Kidney …) came to 25 mg/kg-day.

In the case of `CC(Cl)CCCC(Cl)CCCC(Cl)CCCC(Cl)CCCC(Cl)CCCC(Cl)CCCl` (centres undefined) [Chloro C22-26 alkanes], the NOEL (subchronic, duration: 13 weeks, gavage, F, Fischer 344, Histopathology: Liver-Granuloma inflammation) was < 235 mg/kg-day. `N#CN=C(N)N` [Cyanoguanidine] came in with a no observed adverse effect level (NOAEL) (subchronic, duration: 44 days, gavage, M, CD(SD)) of 1000 mg/kg-day. For `C1CCC2CCCCC2C1` (centres undefined) [Decalin], the LOEL under setting [6] came out at 200 mg/kg-day and the LOEL under setting [7] was 40 mg/kg-day. Besides, the NOEL reads like this: under setting [6], 40 mg/kg-day; under setting [7], < 40 mg/kg-day. For the compound `CCOC(=O)/C=C\C(=O)OCC` [Diethyl maleate], under setting [8], the NOAEL was found to be 20 mg/kg-day and the NOEL came to 20 mg/kg-day.

For `CC(O)CNCC(C)O` (centres undefined) [Diisopropanolamine], the no-observed-adverse-effect level (NOAEL) (subchronic, duration: 90 days, drinking water, F, Fischer 344, Water Consumption: decrease + Urinalysis: Volume decrease, Specific gravity increase + Absolute Organ Weight: Kidney increase500 + Relative…) stood at 500 mg/kg-day; the no-observed-adverse-effect level (NOAEL) (subchronic, duration: 90 days, drinking water, M/F, Fischer 344, Water Consumption: decrease + Urinalysis: SG increase, Volume decrease + Absolute Organ Weight: Kidney increase + Relative Organ Weight: …) worked out at 100 mg/kg-day; the no-observed-adverse-effect level (NOAEL) (subchronic, duration: 90 days, drinking water, M, Fischer 344, Water Consumption: decrease + Urinalysis: Volume decrease, Specific gravity increase + Absolute Organ Weight: Kidney increase500 + Relative…) is 100 mg/kg-day. Regarding `CC(=O)OC1CC(C)OC(C)O1` (centres undefined) [Dimethoxane], the NOEL (subchronic, duration: 13 weeks, gavage, M/F, Fischer 344, Body Weight Changes: decrease + Relative Organ Weight: Kidney increase, Brain increase, Lung increase + Histopathology: Stomach/forestomach…) was found to be 31 mg/kg-day.

On to `CO[Si](C)(C)OC` [Dimethoxydimethylsilane], for which, for the setting “short-term, duration: 29 days, gavage, M/F, Sprague-Dawley, Deaths + Clinical Observation: Soiling of chin and urogenital area Soiling of muzzle + Absolute Organ Weight: Adrenal decrease, Liver …”, the NOAEL was determined as 250 mg/kg-day. For `COC(=O)c1cccc(C(=O)OC)c1` [Dimethyl isophthalate], the no observed adverse effect level (NOAEL) (subchronic, gavage, M, Sprague-Dawley, Clinical Observation: Salivation + Urinalysis: Volume increase, Na increase) turned out to be 250 mg/kg-day. Consider `CCCCCCCCCCCCCCCCCC[N+](C)(C)CCCCCCCCCCCCCCCCCC.[Cl-]` [Dimethyldioctadecylammonium chloride], for which, under “short-term, duration: 28 days, gavage, M/F, Wistar, Body Weight Changes: Weight gain decrease + Hematology: WBC increase + Histopathology: Adrenal: Necrosis, cortex Adrenal: Granulocytes …”, the no-observed-adverse-effect level (NOAEL) was found to be 100 mg/kg-day.

Regarding `CCCCCCC[CH2][Sn]([CH2]CCCCCCC)([S]CC(=O)OCCCCCC(C)C)[S]CC(=O)OCCCCCC(C)C` [Dioctyltin-S,S'-bis(isooctylmercaptoacetate)], the no observed adverse effect level (NOAEL) (subchronic, duration: 13 weeks, diet, Sprague-Dawley) turned out to be 14.4 mg/kg-day.

Take `C=C[Si](C)(C)O[Si](C)(C)C=C` [Divinyltetramethyldisiloxane]: the NOAEL (short-term, duration: 28 days, gavage, M, CD(SD), Clinical Observation: Clear material around the mouth Red material around the mouth + Body Weight Changes: Mean body weight decrease, Weight…) was < 50 mg/kg-day. Consider `COC1COC(OC2COC(OC3COC(OC4COC(OC)C(OS(=O)(=O)[O-])C4OS(=O)(=O)[O-])C(OC4OC(C(=O)[O-])C(OC)C(OS(=O)(=O)[O-])C4OS(=O)(=O)[O-])C3OS(=O)(=O)[O-])C(OS(=O)(=O)[O-])C2OS(=O)(=O)[O-])C(OS(=O)(=O)[O-])C1OS(=O)(=O)[O-].[Na+].[Na+].[Na+].[Na+].[Na+].[Na+].[Na+].[Na+].[Na+].[Na+]` (centres undefined) [Elmiron], for which the NOEL (repeat dose other, gavage, M/F, Fischer 344, Hematology: Hct decrease, Hgb decrease, RBC decrease, Plt increase, WBC increase + Absolute Organ Weight: Liver increase, Spleen increase, …) is < 63 mg/kg-day. As to `Cc1cc(O)c2c(c1)C(=O)c1cc(O)cc(O)c1C2=O` [Emodin], under “chronic, duration: 14 weeks, diet, M/F, Fischer 344, Clinical Observation: Body color change Diarrhea + Body Weight Changes: decrease. >2500 + Food Consumption: decrease + Hematology: Hct …”, the NOEL is < 24.4 mg/kg-day. On to `CCOC(=O)CC#N` [Ethyl cyanoacetate], for which the no observed adverse effect level (NOAEL) (subchronic, duration: 90 days, gavage, M/F, Wistar, Urinalysis: Volume increase + Hematology: WBC decrease, RBC decrease, HGB decrease, HTC decrease + Histopathology: Liver: Inflammation, …) is 100 mg/kg-day. For the compound `CC(O)(P(=O)(O)O)P(=O)(O)O` [Etidronic acid], the no-observed-adverse-effect level (NOAEL) (subchronic, duration: 90 days, diet, M/F, Body Weight Changes: decrease + Food Consumption: decrease + Hematology: RBC increase, HGB decrease, HCT decrease + Absolute Organ Weight: …) is > 2880 mg/kg-day. Turning to `CC(C)(C)c1cc(CCC(=O)O)cc(C(C)(C)C)c1O` [Fenozan], the NOEL (subchronic, duration: 90 days, gavage, M/F, Blood Chemistry: GPT increase, TP increase, GLB increase, T-CHO increase + Organ Weight: Liver increase + Histopathology: Liver - …) was 3 mg/kg-day. With `C[C@@H](O)[C@H]1C(=O)N2C(C(=O)O)=C([C@H]3CCCO3)S[C@H]12` [Fropenem], the no-observed-adverse-effect level (NOAEL) (chronic, duration: 182 days, gavage, M/F, CD, Clinical Observation: Loose stool Soiled perineal region + Body Weight Changes: decrease + Food Consumption: decrease + Water Consumption: …) is 100 mg/kg-day.
